Source: ChEMBL document CHEMBL1151324, “Cytotoxic geranyl stilbenes from Macaranga schweinfurthii” (J Nat Prod, 1998)
In brackets after ≈: the same amount, converted by molar mass.

Experiments:
LOX IMVI = assay: Cytotoxicity against human LOXIMVI cells; format: functional
RXF 393 = assay: Cytotoxicity against human RXF393 cells; format: functional
SF-268 = assay: Cytotoxicity against human SF268 cells; format: functional
SF-539 = assay: Cytotoxicity against human SF539 cells; format: functional
RPMI-8226 = assay: Cytotoxicity against human RPMI8226 cells; format: functional
COLO 205 = assay: Cytotoxicity against human COLO205 cells; format: functional
NCI-H23 = assay: Cytotoxicity against human NCI-H23 cells; format: functional
A549 [1] = assay: Cytotoxicity against human A549 cells; format: functional
MDA-N = assay: Cytotoxicity against human MDA-N cells; format: functional
HCT-116 = assay: Cytotoxicity against human HCT116 cells; format: functional
ACHN = assay: Cytotoxicity against human ACHN cells; format: functional
A549 [2] = assay: Cytotoxicity against human A549 cells after 1 hr compound washout; format: functional, cell-based; settings: A549, 1 h
T47D = assay: Cytotoxicity against human T47D cells; format: functional
OVCAR-8 = assay: Cytotoxicity against human OVCAR8 cells; format: functional
HT-29 = assay: Cytotoxicity against human HT-29 cells; format: functional
M14 = assay: Cytotoxicity against human M14 cells; format: functional
HCT-15 = assay: Cytotoxicity against human HCT15 cells; format: functional
SF-295 [3] = assay: Cytotoxicity against human SF295 cells after 1 hr compound washout; format: functional, cell-based; settings: SF-295, 1 h
CCRF-CEM = assay: Cytotoxicity against human CCRF-CEM cells; format: functional
SK-MEL-28 = assay: Cytotoxicity against human SK-MEL-28 cells; format: functional
A549 [4] = assay: Cytotoxicity against human A549 cells after 1 hr; format: functional, cell-based; settings: A549, 1 h
[5] = Cytotoxicity against human Hs 578T cells; format: functional
MDA-MB-435 = assay: Cytotoxicity against human MDA-MB-435 cells; format: functional
EKVX = assay: Cytotoxicity against human EKVX cells; format: functional
OVCAR-3 = assay: Cytotoxicity against human OVCAR-3 cells; format: functional
Malme-3M = assay: Cytotoxicity against human MALME-3M cells; format: functional
NCI-H322M = assay: Cytotoxicity against human NCI-H322M cells; format: functional
NCI-H460 = assay: Cytotoxicity against human NCI-H460 cells; format: functional
IGROV-1 = assay: Cytotoxicity against human IGROV1 cells; format: functional
SN12C = assay: Cytotoxicity against human SN12C cells; format: functional
SW-620 = assay: Cytotoxicity against human SW620 cells; format: functional
SK-MEL-5 = assay: Cytotoxicity against human SK-MEL-5 cells; format: functional
KM12 = assay: Cytotoxicity against human KM12 cells; format: functional
NCI-H226 = assay: Cytotoxicity against human NCI-H226 cells; format: functional
MDA-MB-231 = assay: Cytotoxicity against human MDA-MB-231 cells; format: functional
HOP-62 = assay: Cytotoxicity against human HOP62 cells; format: functional
UACC-257 = assay: Cytotoxicity against human UACC257 cells; format: functional
PC-3 = assay: Cytotoxicity against human PC3 cells; format: functional
A498 = assay: Cytotoxicity against human A498 cells; format: functional
SNB-19 = assay: Cytotoxicity against human SNB19 cells; format: functional
SF-295 [6] = assay: Cytotoxicity against human SF295 cells after 48 hrs; format: functional, cell-based; settings: SF-295, 48 h
UACC-62 = assay: Cytotoxicity against human UACC62 cells; format: functional
BT-549 = assay: Cytotoxicity against human BT549 cells; format: functional
DU-145 = assay: Cytotoxicity against human DU145 cells; format: functional
NCI-H522 = assay: Cytotoxicity against human NCI-H522 cells; format: functional
TK-10 = assay: Cytotoxicity against human TK10 cells; format: functional
[7] = read-out: pLC50 (the source's name) (converted)

## COc1cc(/C=C/c2cc(O)c(C/C=C(\C)CCC=C(C)C)c(O)c2)cc2c1O[C@]1(C)C[C@@H](O)[C@@H](O)C(C)(C)[C@H]1C2 [SCHWEINFURTHIN B]
LOX IMVI
  GI50: 0.38 µM
  LC50: 30.9 µM
LOX IMVI; read-out: pTGI (converted)
  TGI: 17 µM
RXF 393
  GI50: 0.01 µM
  LC50: 7.08 µM
RXF 393; read-out: pTGI (converted)
  TGI: 0.269 µM
SF-268
  GI50: 4.37 µM
  LC50: 75.9 µM
SF-268; read-out: pTGI (converted)
  TGI: 24 µM
SF-539
  GI50: 0.151 µM
  LC50: 14.1 µM
SF-539; read-out: pTGI (converted)
  TGI: 2 µM
RPMI-8226
  GI50: 0.0151 µM
  LC50: 12 µM
RPMI-8226; read-out: pTGI (converted)
  TGI: 0.11 µM
COLO 205
  GI50: 0.617 µM
  LC50: 6.76 µM
COLO 205; read-out: pTGI (converted)
  TGI: 2.4 µM
NCI-H23
  GI50: 3.24 µM
  LC50: 51.3 µM
NCI-H23; read-out: pTGI (converted)
  TGI: 19.1 µM
A549 [1]
  GI50: 0.339 µM
  LC50 (concentration killing 50% of cells): 38.9 µM
A549 [1]; read-out: pTGI (converted)
  TGI: 14.1 µM
MDA-N
  GI50: 3.39 µM
MDA-N; [7]
  CC50: 28.8 µM
MDA-N; read-out: pTGI (converted)
  TGI: 15.1 µM
HCT-116
  GI50: 0.575 µM
  LC50: 22.9 µM
HCT-116; read-out: pTGI (converted)
  TGI: 6.61 µM
ACHN
  GI50: 4.27 µM
  LC50: 43.7 µM
ACHN; read-out: pTGI (converted)
  TGI: 20 µM
A549 [2]
  IC50: 80 µg/mL (≈ 142 µM)
T47D
  GI50: 11 µM
T47D; [7]
  CC50: > 100 µM
T47D; read-out: pTGI (converted)
  TGI: 69.2 µM
OVCAR-8
  GI50: 11 µM
  LC50: 64.6 µM
OVCAR-8; read-out: pTGI (converted)
  TGI: 26.9 µM
HT-29
  GI50: 0.372 µM
  LC50: 5.5 µM
HT-29; read-out: pTGI (converted)
  TGI: 2.09 µM
M14
  GI50: 0.141 µM
  LC50: 4.17 µM
M14; read-out: pTGI (converted)
  TGI: 1.2 µM
HCT-15
  GI50: 1.91 µM
  LC50: 33.9 µM
HCT-15; read-out: pTGI (converted)
  TGI: 6.92 µM
SF-295 [3]
  IC50: 2.9 µg/mL (≈ 5.15 µM)
CCRF-CEM
  GI50: 0.229 µM
  LC50: > 100 µM
CCRF-CEM; read-out: pTGI (converted)
  TGI: 6.31 µM
SK-MEL-28
  GI50: 1.1 µM
  LC50: 52.5 µM
SK-MEL-28; read-out: pTGI (converted)
  TGI: 12.9 µM
A549 [4]
  IC50: > 100 µg/mL
[5]
  GI50: 0.0199 µM
[5]; [7]
  CC50: > 100 µM
[5]; read-out: pTGI (converted)
  TGI: 1.1 µM
MDA-MB-435
  GI50: 7.59 µM
MDA-MB-435; [7]
  CC50: 72.4 µM
MDA-MB-435; read-out: pTGI (converted)
  TGI: 33.1 µM
EKVX
  GI50: 0.933 µM
  LC50: 38 µM
EKVX; read-out: pTGI (converted)
  TGI: 14.1 µM
OVCAR-3
  GI50: 3.89 µM
  LC50: 42.7 µM
OVCAR-3; read-out: pTGI (converted)
  TGI: 12.9 µM
Malme-3M
  GI50: 8.71 µM
  LC50: 69.2 µM
Malme-3M; read-out: pTGI (converted)
  TGI: 26.9 µM
NCI-H322M
  GI50: 3.39 µM
  LC50: 42.7 µM
NCI-H322M; read-out: pTGI (converted)
  TGI: 17 µM
NCI-H460
  GI50: 0.269 µM
  LC50: 57.5 µM
NCI-H460; read-out: pTGI (converted)
  TGI: 12.9 µM
IGROV-1
  GI50: 2.4 µM
  LC50: 42.7 µM
IGROV-1; read-out: pTGI (converted)
  TGI: 18.2 µM
SN12C
  GI50: 12 µM
  LC50: 67.6 µM
SN12C; read-out: pTGI (converted)
  TGI: 28.8 µM
SW-620
  GI50: 0.676 µM
  LC50: 17 µM
SW-620; read-out: pTGI (converted)
  TGI: 3.09 µM
SK-MEL-5
  GI50: 0.209 µM
  LC50: 28.8 µM
SK-MEL-5; read-out: pTGI (converted)
  TGI: 8.91 µM
KM12
  GI50: 1.29 µM
  LC50: 18.2 µM
KM12; read-out: pTGI (converted)
  TGI: 9.33 µM
NCI-H226
  GI50: 2.19 µM
  LC50: 77.6 µM
NCI-H226; read-out: pTGI (converted)
  TGI: 14.1 µM
MDA-MB-231
  GI50: 6.46 µM
MDA-MB-231; [7]
  CC50: 81.3 µM
MDA-MB-231; read-out: pTGI (converted)
  TGI: 38 µM
HOP-62
  GI50: 0.851 µM
  LC50: 40.7 µM
HOP-62; read-out: pTGI (converted)
  TGI: 14.1 µM
UACC-257
  GI50: 5.75 µM
  LC50: 46.8 µM
UACC-257; read-out: pTGI (converted)
  TGI: 20.9 µM
PC-3
  GI50: 0.251 µM
PC-3; [7]
  CC50: 42.7 µM
PC-3; read-out: pTGI (converted)
  TGI: 12.9 µM
A498
  GI50: 1.7 µM
  LC50: 44.7 µM
A498; read-out: pTGI (converted)
  TGI: 17 µM
SNB-19
  GI50: 0.398 µM
  LC50: 40.7 µM
SNB-19; read-out: pTGI (converted)
  TGI: 15.8 µM
SF-295 [6]
  IC50: 0.009 µg/mL (≈ 0.016 µM)
UACC-62
  GI50: 0.331 µM
  LC50: 10 µM
UACC-62; read-out: pTGI (converted)
  TGI: 2.29 µM
BT-549
  GI50: 11 µM
BT-549; [7]
  CC50: 83.2 µM
BT-549; read-out: pTGI (converted)
  TGI: 39.8 µM
DU-145
  GI50: 3.39 µM
DU-145; [7]
  CC50: 50.1 µM
DU-145; read-out: pTGI (converted)
  TGI: 19.1 µM
NCI-H522
  GI50: 3.02 µM
  LC50: 39.8 µM
NCI-H522; read-out: pTGI (converted)
  TGI: 17 µM
TK-10
  GI50: 6.17 µM
  LC50: 52.5 µM
TK-10; read-out: pTGI (converted)
  TGI: 21.9 µM
